Laboratory results from patent publication US9789121B2, “Small molecules that replace or agonize p53 function” (BUCK INSTITUTE, priority 2004, dated 2017).
“Also recorded” adds a separate entry of the source.

Columns and labels:
[1] = tested on: SW480; test: G6 sensitivity of colon cell line SW480 (p53 Mt); format: cell-based; conditions: listed as Rp53-1
[2] = tested on: LNcap; test: G6 sensitivity of prostate cell line LNcap (p53 WT); format: cell-based; conditions: listed as Rp53-1
[3] = tested on: Lovo; test: G6 sensitivity of colon cell line Lovo (p53 WT); format: cell-based; conditions: listed as Rp53-1
[4] = tested on: p53/Bax reporter in HEK293T cells; test: p53/Bax luciferase reporter system in HEK293T cells; format: cell-based
Source text: To identify p53 mimics, we developed a live mammalian cell system that reports the promotion of the expression of the pro-apoptotic Bax protein. The bax promoter consists of a 372 nucleotide 5′ UTR, a TATAA sequence, and several consensus sequences that bind p53, resulting in up-regulation of Bax expression (see, e.g., FIG. 1). By expressing these sites upstream of the gene encoding luciferase in HEK293T cells, we have established a novel set of reporter cell lines. These cells provide a system which allows identification of both direct activators of Bax expression and replacements of an apoptotic function of p53. In initial studies, cotransfection of a p53 expression plasmid with a reporter bearing oligomerized consensus binding sites yielded strongly luminescent cells, whereas cotransfection with an irrelevant plasmid gave no luminescence. […] By employing the Multi-Probe H liquid handling robotic system and the ultra-sensitive Top-Count luminometer, high-speed screening of thousands of compounds has been enabled at the Buck Institute. We obtained and screened a 2000 compound small molecule library made available by the National Cancer Institute in our p53 reporter system in HEK293T cells.

[5] = tested on: p53 defective tumor cell line; test: G6 treatment of p53 defective tumor cell lines; format: cell-based; conditions: every p53 defective tumor cell line treated
Source text: (§1) Inherent in the initial drug design was a strategy to develop a therapy that targets mutant p53 containing cells and that would leave healthy cells expressing normal p53 unaffected (FIG. 3).

[6] = tested on: ColoHSR; test: G6 sensitivity of colon cell line ColoHSR (p53 Mt); format: cell-based; conditions: listed as Rp53-1
[7] = tested on: wild type cells from corresponding normal tissue; test: G6 treatment of wild type cells from corresponding normal tissue; format: cell-based
Source text: as §1

[8] = tested on: MDA-435; test: G6 sensitivity of breast cancer cells MDA-435 (p53 Mt); format: cell-based, human; conditions: MDA-435, breast, listed as Rp53-1
Protocol: To assess the ability of the small molecule compound Rp53-1 to mimic the transcription-promoting functions of p53 leading to Bax expression and induction of cell death, p53-mutated MDA-MB-435 and p53-wild-type MCF-7 human breast cancer cells were treated with Rp53-1. […] Lack of toxicity in cells generating normal p53 activity (all other human cells) would reduce possible side effects. Inherent in the initial drug design was a strategy to develop a therapy that targets mutant p53 containing cells and that would leave healthy cells expressing normal p53 unaffected (FIG. 3).

[9] = tested on: breast cancer cells; test: Single pulse treatment of breast cancer cells with G6; format: cell-based; conditions: single pulse of G6 in the nanomolar range
Source text: Thus G6 appears to be a potent treatment.

[10] = tested on: HT29; test: G6 sensitivity of colon cell line HT29 (p53 Mt); format: cell-based; conditions: listed as Rp53-1
[11] = tested on: p53 Reporter in p53 Mt and Null Cells; test: p53 reporter in p53 Mt and Null cells; format: cell-based
[12] = tested on: Saos-2; test: G6 sensitivity of osteosarcoma cell line Saos-2 (p53 null); format: cell-based; conditions: Saos-2, osteosarcoma, listed as Rp53-1
[13] = tested on: DU145; test: G6 sensitivity of prostate cell line DU145 (p53 Mt); format: cell-based; conditions: listed as Rp53-1
[14] = tested on: human osteosarcoma xenografted nude mice; test: G6 treatment of human osteosarcoma xenografted nude mice; format: in vivo
Source text: Initial trials of G6 in human osteosarcoma xenografted nude mice have shown promise (FIG. 10). Mice bearing p53 abnormal tumors have responded well to G6. […] Further mouse studies are currently underway.

[15] = tested on: PC3; test: G6 sensitivity of prostate cell line PC3 (p53 null); format: cell-based; conditions: listed as Rp53-1

## Cc1cc(OCc2nc(N)nc(N)c2-c2ccc(Cl)c(Cl)c2)ccc1[N+](=O)[O-] [G6]
[1]
  G6 Sensitivity: sensitive
[2]
  G6 Sensitivity: resistant
[3]
  G6 Sensitivity: resistant
[4]; high concentrations (10 μM)
  expression of luciferase levels relative to transfected wild-type p53: greater than transfected wild-type p53
[4]; listed as Rp53-1
  luciferase expression and activity (p53 reporter): activates the p53/Bax reporter; also recorded: significant levels of luciferase activity
[5]
  susceptibility to G6: showed susceptibility
[6]
  G6 Sensitivity: sensitive
[7]
  effect of G6 on wild type cells: unaffected
[8]
  G6 Sensitivity: sensitive
[9]
  activation of the cell death program / drug efficacy: complete drug efficacy; also recorded: sufficient to activate the cell death program
[10]
  G6 Sensitivity: sensitive
[11]
  induction of p53 Reporter: induces p53 Reporter
[12]
  G6 Sensitivity: sensitive
[13]
  G6 Sensitivity: sensitive
[14]; human osteosarcoma xenografted nude mice treated with G6
  adverse side effects: none of the mice have shown adverse side effects
[14]; nude mice implanted with human osteosarcoma tissue, p53 abnormal tumors
  tumor regression: complete regression of tumor
[15]
  G6 Sensitivity: sensitive
